Values of other authors, collected in patent US6753298B2, “Agents for combating Neospora spec” (Bayer AG, priority 1997, dated 2004).

System: Neospora
Details: experimentally infected mice; administered by drinking water

SMILES: Nc1ccc(S(=O)(=O)Nc2ncccn2)cc1 [sulphadiazine]
- in-vivo efficacy: effective only when the treatment was prophylactic
